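How tested: cells in 96-well plates exposed to compound for 48 hours at five concentrations. GI50 = concentration required for 50% inhibition of growth.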 Activity calls are given as the source filed them. No stated cut-off is given here; in the data, active = GI50 up to about 1.1 µM and inactive = higher.
How the values were obtained:
Assay in all cases: growth of human tumour cells (NCI), 48 h
BT-549 = tested on: BT-549
NCI-H522 = tested on: NCI-H522
UACC-62 = tested on: UACC-62
ACHN = tested on: ACHN
MCF7 = tested on: MCF7
MDA-MB-231 = tested on: MDA-MB-231
NCI-H23 = tested on: NCI-H23
NCI-H226 = tested on: NCI-H226
OVCAR-4 = tested on: OVCAR-4
OVCAR-5 = tested on: OVCAR-5
COLO 205 = tested on: COLO 205
HOP-92 = tested on: HOP-92
SK-MEL-5 = tested on: SK-MEL-5
UACC-257 = tested on: UACC-257
786-0 = tested on: 786-0
CCRF-CEM = tested on: CCRF-CEM
OVCAR-3 = tested on: OVCAR-3
LOX IMVI = tested on: LOX IMVI
A549 = tested on: A549

Measured: GI50

CN(C)CCNc1ccc2c(=O)n(CCN(C)C)c(=O)n3c4ccc(O)cc4c(=O)c1c23
active: BT-549 0.292 µM | NCI-H522 < 0.01 µM | UACC-62 < 0.0128 µM | ACHN < 0.01 µM | MCF7 < 0.01 µM | MDA-MB-231 < 0.0395 µM | NCI-H23 < 0.01 µM | NCI-H226 < 0.01 µM | OVCAR-4 0.106 µM | OVCAR-5 0.0775 µM | COLO 205 0.0327 µM | HOP-92 < 0.01 µM | SK-MEL-5 < 0.0115 µM | UACC-257 0.149 µM | 786-0 < 0.01 µM | CCRF-CEM < 0.01 µM | OVCAR-3 0.105 µM | LOX IMVI < 0.0105 µM | A549 < 0.01 µM

Cc1cccc2nc3cccc(C(=O)NCCC[N+](C)(CCCNC(=O)c4cccc5nc6cccc(C)c6nc45)Cc4c([N+](=O)[O-])ncn4C)c3nc12
active: UACC-62 0.853 µM | ACHN 0.136 µM | MCF7 0.436 µM | NCI-H226 0.787 µM | COLO 205 0.705 µM | LOX IMVI 0.0908 µM | A549 0.189 µM
inactive: BT-549 41.7 µM | NCI-H522 2.1 µM | MDA-MB-231 38.3 µM | NCI-H23 1.53 µM | OVCAR-4 29 µM | OVCAR-5 1.91 µM | HOP-92 23.9 µM | SK-MEL-5 1.95 µM | UACC-257 5.22 µM | 786-0 4.07 µM | CCRF-CEM 47 µM | OVCAR-3 22 µM

COc1cc(OCc2ccc3nc(OC)c(OC)nc3c2)cc(OC)c1OC
inactive: BT-549 > 3.72 µM | NCI-H522 > 10 µM | UACC-62 > 10 µM | ACHN > 10 µM | MCF7 > 10 µM | MDA-MB-231 > 10 µM | NCI-H23 > 10 µM | NCI-H226 > 10 µM | OVCAR-4 > 8 µM | OVCAR-5 > 10 µM | COLO 205 > 10 µM | HOP-92 7.18 µM | SK-MEL-5 > 10 µM | UACC-257 > 10 µM | 786-0 > 10 µM | CCRF-CEM > 10 µM | OVCAR-3 > 10 µM | LOX IMVI > 10 µM | A549 > 10 µM

CCOC(=O)/C=C(/C(=O)OCC)n1ccc(=O)n(Cc2cn(CCCCOC(C)=O)nn2)c1=O
inactive: BT-549 > 100 µM | NCI-H522 13.6 µM | UACC-62 > 100 µM | ACHN 40.3 µM | MCF7 60.3 µM | MDA-MB-231 > 100 µM | NCI-H23 > 100 µM | NCI-H226 32.9 µM | OVCAR-4 > 100 µM | OVCAR-5 > 100 µM | COLO 205 31.8 µM | HOP-92 6.65 µM | SK-MEL-5 > 100 µM | UACC-257 > 100 µM | 786-0 > 100 µM | CCRF-CEM 16.2 µM | OVCAR-3 > 100 µM | LOX IMVI > 100 µM | A549 > 100 µM

Cc1ccccc1NC(=O)C(=O)Cc1cnc2ccccc2n1
inactive: BT-549 > 100 µM | NCI-H522 > 100 µM | UACC-62 > 100 µM | ACHN > 100 µM | MCF7 > 100 µM | MDA-MB-231 > 100 µM | NCI-H23 > 100 µM | NCI-H226 > 100 µM | OVCAR-4 > 100 µM | OVCAR-5 > 100 µM | COLO 205 > 100 µM | HOP-92 > 100 µM | SK-MEL-5 > 100 µM | UACC-257 > 100 µM | 786-0 > 100 µM | CCRF-CEM 69.8 µM | OVCAR-3 > 100 µM | LOX IMVI > 100 µM | A549 > 100 µM

Cc1ccc2ccc(O)cc2c1
inactive: BT-549 26.7 µM | NCI-H522 19.9 µM | UACC-62 43.6 µM | ACHN 53.6 µM | MCF7 31.2 µM | MDA-MB-231 30 µM | NCI-H23 37.8 µM | NCI-H226 39.3 µM | OVCAR-4 20.9 µM | OVCAR-5 55.8 µM | COLO 205 > 100 µM | HOP-92 24.9 µM | SK-MEL-5 57.4 µM | UACC-257 64.3 µM | 786-0 76.2 µM | CCRF-CEM 23.9 µM | OVCAR-3 10.2 µM | LOX IMVI 30.2 µM | A549 72.4 µM

CCN(CC)C(=S)/N=C(\SC(=S)N(CC)CC)c1ccccc1
inactive: BT-549 > 60.4 µM | UACC-62 39.6 µM | ACHN > 68.2 µM | MCF7 3.6 µM | MDA-MB-231 5.65 µM | NCI-H23 36.9 µM | NCI-H226 28.5 µM | OVCAR-4 27.3 µM | OVCAR-5 > 80 µM | HOP-92 > 100 µM | UACC-257 45.7 µM | 786-0 > 65 µM | OVCAR-3 28.2 µM | LOX IMVI 15.1 µM | A549 20.8 µM
active: NCI-H522 0.119 µM | COLO 205 0.522 µM | SK-MEL-5 0.569 µM | CCRF-CEM 0.787 µM

CN(C)c1ccc(C(=NNC(=O)c2cc3ccccc3[nH]2)c2ccc(N(C)C)cc2)cc1
active: NCI-H522 0.275 µM | UACC-62 0.409 µM | ACHN 1.1 µM | MCF7 0.245 µM | MDA-MB-231 0.457 µM | NCI-H23 0.912 µM | OVCAR-5 0.94 µM | COLO 205 0.305 µM | SK-MEL-5 0.407 µM | CCRF-CEM 0.326 µM | OVCAR-3 0.276 µM | LOX IMVI 0.811 µM | A549 0.637 µM
inactive: BT-549 3.69 µM | NCI-H226 35.8 µM | OVCAR-4 2.73 µM | HOP-92 3.22 µM | UACC-257 4.04 µM | 786-0 1.53 µM

COc1cc(CNc2nc3ccccc3nc2C(=O)O)cc(OC)c1OC
inactive: BT-549 > 100 µM | NCI-H522 71.9 µM | UACC-62 74 µM | ACHN > 100 µM | MCF7 81.1 µM | MDA-MB-231 > 100 µM | NCI-H23 > 100 µM | NCI-H226 > 100 µM | OVCAR-4 > 100 µM | OVCAR-5 > 100 µM | COLO 205 > 100 µM | HOP-92 65 µM | SK-MEL-5 98.4 µM | UACC-257 > 100 µM | 786-0 > 100 µM | CCRF-CEM > 100 µM | OVCAR-3 > 100 µM | LOX IMVI > 100 µM | A549 > 100 µM

COc1ccc(NC(=O)CC(=O)n2nc(C)c(/N=N/c3cccc(C)c3)c2C)cc1
inactive: BT-549 > 100 µM | NCI-H522 > 100 µM | UACC-62 > 100 µM | ACHN > 100 µM | MCF7 > 100 µM | MDA-MB-231 > 100 µM | NCI-H23 > 100 µM | NCI-H226 > 100 µM | OVCAR-4 > 100 µM | OVCAR-5 > 100 µM | COLO 205 > 100 µM | HOP-92 69.8 µM | SK-MEL-5 > 100 µM | UACC-257 > 10 µM | 786-0 > 100 µM | CCRF-CEM > 100 µM | OVCAR-3 > 100 µM | LOX IMVI > 100 µM | A549 > 100 µM

N#CCCN(CCC#N)c1ccc(/C=C2\SC(=S)NC2=O)cc1Br
inactive: BT-549 37.3 µM | NCI-H522 76 µM | UACC-62 > 100 µM | ACHN 67.9 µM | MCF7 > 100 µM | MDA-MB-231 25.9 µM | NCI-H23 > 100 µM | NCI-H226 > 100 µM | OVCAR-4 85.1 µM | OVCAR-5 > 100 µM | COLO 205 > 100 µM | HOP-92 50.5 µM | SK-MEL-5 > 100 µM | UACC-257 > 100 µM | 786-0 37.8 µM | CCRF-CEM > 100 µM | OVCAR-3 > 100 µM | LOX IMVI 23.1 µM | A549 > 100 µM

Clc1cc(-c2ccccc2)nc2ccccc12
inactive: BT-549 18.8 µM | NCI-H522 17 µM | UACC-62 42.6 µM | ACHN 38.5 µM | MCF7 23.7 µM | MDA-MB-231 35.4 µM | NCI-H23 51.6 µM | NCI-H226 28.4 µM | OVCAR-4 20.7 µM | OVCAR-5 > 100 µM | COLO 205 19.5 µM | HOP-92 36.8 µM | SK-MEL-5 18.1 µM | UACC-257 34.8 µM | 786-0 39.5 µM | CCRF-CEM 23.8 µM | OVCAR-3 49.9 µM | LOX IMVI 40 µM | A549 35.6 µM

CC(NNC(=O)c1ccc[n+]([BH2-]C#N)c1)c1ccccc1 (centres undefined)
inactive: BT-549 > 100 µM | NCI-H522 > 100 µM | UACC-62 > 100 µM | ACHN > 100 µM | MCF7 > 100 µM | MDA-MB-231 > 100 µM | NCI-H23 > 100 µM | NCI-H226 > 100 µM | OVCAR-4 > 100 µM | OVCAR-5 > 100 µM | COLO 205 > 100 µM | HOP-92 > 100 µM | SK-MEL-5 > 100 µM | UACC-257 > 100 µM | 786-0 > 100 µM | CCRF-CEM 78.7 µM | OVCAR-3 > 100 µM | LOX IMVI > 100 µM

COc1cccc2c1C(=O)c1c(O)c3c(c(O)c1C2=O)C[C@@](O)(C(C)=O)CC3OC1CC(OC2CC(N)C(O)C(C)O2)C(O)C(C)O1 (some centres undefined)
inactive: BT-549 32.5 µM | NCI-H522 45.4 µM | UACC-62 66.1 µM | ACHN 38.7 µM | MCF7 7.66 µM | MDA-MB-231 > 64.9 µM | NCI-H23 34.9 µM | NCI-H226 51.1 µM | OVCAR-4 > 100 µM | OVCAR-5 > 61.2 µM | COLO 205 74.6 µM | HOP-92 31.3 µM | SK-MEL-5 35.7 µM | UACC-257 > 67.5 µM | 786-0 32.5 µM | CCRF-CEM 10.5 µM | OVCAR-3 31 µM | LOX IMVI 18.4 µM | A549 52.5 µM

O=Cc1cc2c(o1)C(=O)c1ccccc1C2=O
active: BT-549 0.757 µM | MCF7 0.213 µM | NCI-H23 0.191 µM | NCI-H226 1.07 µM | SK-MEL-5 0.233 µM | UACC-257 0.569 µM | OVCAR-3 0.358 µM | LOX IMVI 0.267 µM
inactive: NCI-H522 1.48 µM | UACC-62 1.78 µM | ACHN 1.98 µM | MDA-MB-231 3.07 µM | OVCAR-4 1.17 µM | OVCAR-5 1.77 µM | COLO 205 1.44 µM | HOP-92 1.83 µM | 786-0 1.25 µM | CCRF-CEM 2.09 µM | A549 1.32 µM
